Measurements: article PMC5641919, “Structural basis for antibacterial peptide self‐immunity by the bacterial ABC transporter McjD” (The EMBO Journal, 2017)

Target: T1, McjD (Escherichia coli, UniProt Q9X2W0)
T1 construct: reconstituted in E. coli polar lipid proteoliposomes for transport; plasmid-encoded mcjABCD operon
Test: ATP-dependent Hoechst fluorescence uptake in proteoliposomes
Format: biochemical
Settings: 0.1 μM Hoechst, 50 mM Tris pH 8, 50 mM KCl, E. coli polar lipids

T1 sequence (Q9X2W0 whole entry): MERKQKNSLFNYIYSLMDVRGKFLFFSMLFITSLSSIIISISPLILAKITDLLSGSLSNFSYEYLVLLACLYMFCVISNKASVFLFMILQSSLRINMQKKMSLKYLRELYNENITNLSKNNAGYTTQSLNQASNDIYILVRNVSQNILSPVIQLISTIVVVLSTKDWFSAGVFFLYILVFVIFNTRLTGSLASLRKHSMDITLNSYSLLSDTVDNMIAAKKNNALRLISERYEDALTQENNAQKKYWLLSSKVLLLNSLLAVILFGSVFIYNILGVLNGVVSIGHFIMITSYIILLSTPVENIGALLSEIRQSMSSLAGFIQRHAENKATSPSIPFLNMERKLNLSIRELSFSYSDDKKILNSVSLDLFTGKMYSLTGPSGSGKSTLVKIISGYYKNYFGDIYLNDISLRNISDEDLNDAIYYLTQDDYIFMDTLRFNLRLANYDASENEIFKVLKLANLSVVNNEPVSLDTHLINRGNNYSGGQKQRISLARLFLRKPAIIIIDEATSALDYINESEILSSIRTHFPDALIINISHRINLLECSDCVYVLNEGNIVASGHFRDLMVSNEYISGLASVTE

## CCOc1ccc(-c2nc3ccc(-c4nc5ccc(N6CCN(C)CC6)cc5[nH]4)cc3[nH]2)cc1 [Hoechst 33342]
  ATP-dependent Hoechst fluorescence uptake in proteoliposomes: McjD mediates the ATP‐dependent uptake of Hoechst in proteoliposomes (black line)
